Test results as given in patent publication US10758534B2 (Vertex Pharmaceuticals Incorporated, priority 2014, dated 2020).
Read-outs that look alike come from different tables or passages of the source.

Molecular target: T1, F508del (Homo sapiens, UniProt P13569, DEL508-508)
T1 construct: expressed in transfected cells
Experiment: Protocol 2: FRET membrane potential optical assay (VIPR), identification of correction compounds
Format: cell-based
Method in brief: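 Correction of the F508del trafficking defect is scored as forskolin (10 μM)/genistein (20 μM)-stimulated Cl^− efflux in NIH3T3 mouse fibroblasts after a 16 hr, 37° C. compound exposure. Depolarization was followed optically using voltage-sensing FRET dyes.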

[1] = Table 3, compounds of Table 1 as modulators of CFTR activity, protocol not stated
[2] = F508del CFTR modulator activity, compounds of Table 1, read-out: EC30

T1 sequence (P13569 with tags, fused parts or gaps DEL508-508): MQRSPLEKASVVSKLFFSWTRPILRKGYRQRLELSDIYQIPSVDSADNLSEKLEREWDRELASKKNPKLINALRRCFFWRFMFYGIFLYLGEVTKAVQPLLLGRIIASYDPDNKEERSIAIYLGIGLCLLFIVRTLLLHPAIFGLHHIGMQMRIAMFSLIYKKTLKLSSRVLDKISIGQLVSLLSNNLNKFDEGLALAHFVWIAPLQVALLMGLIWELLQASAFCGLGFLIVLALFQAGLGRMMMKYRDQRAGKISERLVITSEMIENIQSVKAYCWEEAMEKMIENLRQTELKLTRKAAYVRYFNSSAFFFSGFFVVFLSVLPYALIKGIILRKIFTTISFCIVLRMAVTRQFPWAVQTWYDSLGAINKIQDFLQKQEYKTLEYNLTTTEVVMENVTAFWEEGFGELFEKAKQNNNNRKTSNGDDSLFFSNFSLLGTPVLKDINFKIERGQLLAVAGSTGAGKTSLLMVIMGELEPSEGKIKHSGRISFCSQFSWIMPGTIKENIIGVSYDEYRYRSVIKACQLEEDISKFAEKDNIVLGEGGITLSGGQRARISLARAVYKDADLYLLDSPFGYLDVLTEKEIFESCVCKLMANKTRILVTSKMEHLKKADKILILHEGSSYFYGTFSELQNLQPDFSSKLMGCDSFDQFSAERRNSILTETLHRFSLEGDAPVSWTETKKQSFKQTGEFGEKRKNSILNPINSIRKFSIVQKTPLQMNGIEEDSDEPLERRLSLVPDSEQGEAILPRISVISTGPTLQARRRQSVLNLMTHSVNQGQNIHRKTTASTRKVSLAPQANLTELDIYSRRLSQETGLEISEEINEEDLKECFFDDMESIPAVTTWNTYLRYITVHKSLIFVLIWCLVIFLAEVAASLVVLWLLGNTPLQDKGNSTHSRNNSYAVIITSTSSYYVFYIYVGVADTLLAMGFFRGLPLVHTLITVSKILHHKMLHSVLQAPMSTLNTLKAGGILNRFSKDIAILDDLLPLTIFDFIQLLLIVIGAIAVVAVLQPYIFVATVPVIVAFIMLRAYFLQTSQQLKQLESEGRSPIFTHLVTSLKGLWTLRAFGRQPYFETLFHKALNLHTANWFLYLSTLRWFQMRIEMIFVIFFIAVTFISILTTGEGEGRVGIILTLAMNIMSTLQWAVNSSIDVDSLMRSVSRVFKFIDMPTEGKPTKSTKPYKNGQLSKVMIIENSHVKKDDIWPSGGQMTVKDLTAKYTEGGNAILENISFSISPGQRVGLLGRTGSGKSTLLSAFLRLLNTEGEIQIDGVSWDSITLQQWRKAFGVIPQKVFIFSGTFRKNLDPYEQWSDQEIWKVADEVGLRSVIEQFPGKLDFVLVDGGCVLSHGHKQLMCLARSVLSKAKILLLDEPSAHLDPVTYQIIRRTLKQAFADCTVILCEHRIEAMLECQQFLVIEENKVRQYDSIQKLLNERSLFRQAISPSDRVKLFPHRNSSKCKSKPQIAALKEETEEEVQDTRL

Structure (SMILES) | EC30 [1] | other results
CC(C)Cc1ccc(C(=O)NS(=O)(=O)c2cccnc2N)c(N2C[C@@H](C)CC2(C)C)n1 [Compound 2150, N-[(2-amino-3-pyridyl)sulfonyl]-6-isobutyl-2-[(4S)-2,2,4-trimethylpyrrolidin-1-yl]pyridine-3-carboxamide] |  | EC30 [2]: < 3 µM
CC1CN(c2ncccc2C(=O)NS(=O)(=O)c2cccc(Nc3cc(F)cc(F)c3)n2)C(C)(C)C1 (stereo not shown) [Compound 2282, N—[[6-(3,5-difluoroanilino)-2-pyridyl]sulfonyl]-2-(2,2,4-trimethylpyrrolidin-1-yl)pyridine-3-carboxamide] |  | EC30 [2]: < 3 µM
Cc1nc(-c2cccc(Oc3cccc(S(=O)(=O)NC(=O)c4cccnc4N4CC(C)CC4(C)C)n3)c2)no1 (stereo not shown) [Compound 2263, N—[[6-[3-(5-methyl-1,2,4-oxadiazol-3-yl)phenoxy]-2-pyridyl]sulfonyl]-2-(2,2,4-trimethylpyrrolidin-1-yl)pyridine-3-carboxamide] |  | EC30 [2]: < 3 µM
Cc1cc(C)c(Oc2nc(-c3cccc(OCC(C)C)c3)ccc2C(=O)NS(=O)(=O)c2ccc[nH]c2=O)c(C)c1 [Compound 125, 6-(3-isobutoxyphenyl)-N-[(2-oxo-1H-pyridin-3-yl)sulfonyl]-2-(2,4,6-trimethylphenoxy)pyridine-3-carboxamide] | ++ (“++” means between 3 uM and 10 uM) | 
CC(C)COc1cc(F)cc(-c2ccc(C(=O)NS(=O)(=O)c3cccc(N)n3)c(OC3CCCOC3)n2)c1 (stereo not shown) [Compound 706, N-[(6-amino-2-pyridyl)sulfonyl]-6-(3-fluoro-5-isobutoxy-phenyl)-2-tetrahydropyran-3-yloxy-pyridine-3-carboxamide] | +++ (“+++” means <3 uM) | 
Cc1cc(C(C)(C)C)cc(C)c1Cn1nc(C(C)(C)C)cc1C(=O)NS(=O)(=O)c1ccccc1 [Compound 443, N-(benzenesulfonyl)-5-tert-butyl-2-[(4-tert-butyl-2,6-dimethyl-phenyl)methyl]pyrazole-3-carboxamide] | + (“+” means greater than 10 uM) | 
C[C@@H]1CN(c2nc(-n3ccc(-c4ccccn4)n3)ccc2C(=O)NS(=O)(=O)C2CC2)C(C)(C)C1 [Compound 2711] |  | EC30 [2]: 3 to 10 µM
CC1CN(c2ncccc2C(=O)NS(=O)(=O)c2cccc(Oc3cc(Cl)cc(Cl)c3)n2)C(C)(C)C1 (stereo not shown) [Compound 2663, N—[[6-(3,5-dichlorophenoxy)-2-pyridyl]sulfonyl]-2-(2,2,4-trimethylpyrrolidin-1-yl)pyridine-3-carboxamide] |  | EC30 [2]: < 3 µM
[2H]C([2H])([2H])C([2H])(COc1cc(F)cc(-c2ccc(C(=O)NS(=O)(=O)c3cccc(N)n3)c(N3C[C@@H](C)CC3(C)C)n2)c1)C([2H])([2H])[2H] [Compound 2708, N-[(6-amino-2-pyridyl)sulfonyl]-6-[3-fluoro-5-[2,3,3,3-tetradeuterio-2-(trideuteriomethyl)propoxy]phenyl]-2-[(4S)-2,2,4-trimethylpyrrolidin-1-yl]pyridine-3-carboxamide] |  | EC30 (F508del CFTR modulator activity, compounds of Table 1): +++ (“+++” means <3 uM)
Cc1cc(C)c(Oc2nc(-c3ccccc3)ccc2C(=O)NS(=O)(=O)c2ccn[nH]2)c(C)c1 [Compound 784, 6-phenyl-N-(1H-pyrazol-5-ylsulfonyl)-2-(2,4,6-trimethylphenoxy)pyridine-3-carboxamide] | +++ (“+++” means <3 uM) | 
COc1cccc(-c2ccc(C(=O)NS(=O)(=O)c3cccc(N)n3)c(Oc3c(C)cc(C)cc3C)n2)c1F [Compound 661, N-[(6-amino-2-pyridyl)sulfonyl]-6-(2-fluoro-3-methoxy-phenyl)-2-(2,4,6-trimethylphenoxy)pyridine-3-carboxamide] | +++ (“+++” means <3 uM) | 
C[C@@H]1CN(c2nc(-c3ccccc3O)ccc2C(=O)NS(=O)(=O)c2ccc[nH]c2=O)C(C)(C)C1 [Compound 2480, 6-(2-hydroxyphenyl)-N-[(2-oxo-1H-pyridin-3-yl)sulfonyl]-2-[(4S)-2,2,4-trimethylpyrrolidin-1-yl]pyridine-3-carboxamide] |  | EC30 [2]: 3 to 10 µM
CC(C)Oc1ccc(-c2ccc(C(=O)NS(=O)(=O)c3cccc(N)n3)c(N3CCc4ccccc43)n2)cn1 [Compound 588, N-[(6-amino-2-pyridyl)sulfonyl]-2-indolin-1-yl-6-(6-isopropoxy-3-pyridyl)pyridine-3-carboxamide] | ++ (“++” means between 3 uM and 10 uM) | 
CC(C)COc1cc(F)cc(-c2ccc(C(=O)NS(=O)(=O)c3cccc(N)n3)c(N3CCC(O)CC3)n2)c1 [Compound 2323, N-[(6-amino-2-pyridyl)sulfonyl]-6-(3-fluoro-5-isobutoxy-phenyl)-2-(4-hydroxy-1-piperidyl)pyridine-3-carboxamide] |  | EC30 [2]: 3 to 10 µM
CC1CN(c2ncccc2C(=O)NS(=O)(=O)c2cccc(Nc3ccc(NC(=O)OC(C)(C)C)cc3)n2)C(C)(C)C1 (stereo not shown) [Compound 2743] |  | EC30 [2]: < 3 µM
CC(C)COc1cc(F)cc(-c2ccc(C(=O)NS(=O)(=O)c3cccc(N)n3)c(OC3CCC(C)C3)n2)c1 (stereo not shown) [Compound 452, N-[(6-amino-2-pyridyl)sulfonyl]-6-(3-fluoro-5-isobutoxy-phenyl)-2-(3-methylcyclopentoxy)pyridine-3-carboxamide] | +++ (“+++” means <3 uM) | 
CC(C)Oc1c(F)cc(-c2ccc(C(=O)NS(=O)(=O)c3cccc(N)n3)c(N3C[C@@H](C)CC3(C)C)n2)cc1F [Compound 2608, N-[(6-amino-2-pyridyl)sulfonyl]-6-(3,5-difluoro-4-isopropoxy-phenyl)-2-[(4S)-2,2,4-trimethylpyrrolidin-1-yl]pyridine-3-carboxamide] |  | EC30 [2]: < 3 µM
CC(C)COc1cc(F)cc(-c2ccc(C(=O)NS(=O)(=O)c3cccc(N)n3)c(N3C[C@@H](C)CC3(C)C)n2)c1 [Compound 368, N-[(6-amino-2-pyridyl)sulfonyl]-6-(3-fluoro-5-isobutoxy-phenyl)-2-[(4S)-2,2,4-trimethylpyrrolidin-1-yl]pyridine-3-carboxamide] | +++ (“+++” means <3 uM) | 
CC1CN(c2nc(-c3ccnc(OC(C)C)c3)ccc2C(=O)NS(=O)(=O)c2cccc(N)n2)C(C)(C)C1 (stereo not shown) [Compound 402, N-[(6-amino-2-pyridyl)sulfonyl]-6-(2-isopropoxy-4-pyridyl)-2-(2,2,4-trimethylpyrrolidin-1-yl)pyridine-3-carboxamide] | +++ (“+++” means <3 uM) | 

Second part, led by results:

EC30 [1] | Structure (SMILES) | other results
+++ (“+++” means <3 uM) | CNc1cccc(S(=O)(=O)NC(=O)c2cc(C(C)(C)C)nn2Cc2c(C)cc(C)cc2C)c1 [Compound 249, 5-tert-butyl-N-[3-(methylamino)phenyl]sulfonyl-2-[(2,4,6-trimethylphenyl)methyl]pyrazole-3-carboxamide] | 
+++ (“+++” means <3 uM) | Cc1cc(C)c(Oc2nc(C3CCC(F)(F)CC3)ccc2C(=O)NS(=O)(=O)c2cccc(N)n2)c(C)c1 [Compound 783, N-[(6-amino-2-pyridyl)sulfonyl]-6-(4,4-difluorocyclohexyl)-2-(2,4,6-trimethylphenoxy)pyridine-3-carboxamide] | 
+++ (“+++” means <3 uM) | CC1CCN(c2nc(C(C)(C)C)ccc2C(=O)NS(=O)(=O)c2cccc(N)n2)CC1 [Compound 794, N-[(6-amino-2-pyridyl)sulfonyl]-6-tert-butyl-2-(4-methyl-1-piperidyl)pyridine-3-carboxamide] | 
++ (“++” means between 3 uM and 10 uM) | Cc1cc(C)c(CN2Cc3ccccc3C2C(=O)NS(=O)(=O)c2cc(N)ccn2)c(C)c1 (stereo not shown) [Compound 32, N-[(4-amino-2-pyridyl)sulfonyl]-2-[(2,4,6-trimethylphenyl)methyl]isoindoline-1-carboxamide] | 
+ (“+” means greater than 10 uM) | Cc1ccc(-c2nc(-c3cc(F)cc(OC(C)C)c3)ccc2C(=O)NS(=O)(=O)c2cccc(N)n2)cc1 [Compound 722, N-[(6-amino-2-pyridyl)sulfonyl]-6-(3-fluoro-5-isopropoxy-phenyl)-2-(p-tolyl)pyridine-3-carboxamide] | 
+++ (“+++” means <3 uM) | CC(C)C(C)Oc1cccc(-c2ccc(C(=O)NS(=O)(=O)c3cccc(N)n3)c(N3CCCC3(C)C)n2)n1 (stereo not shown) [Compound 717, N-[(6-amino-2-pyridyl)sulfonyl]-6-[6-(1,2-dimethylpropoxy)-2-pyridyl]-2-(2,2-dimethylpyrrolidin-1-yl)pyridine-3-carboxamide] | 
+++ (“+++” means <3 uM) | Cc1cc(C)c(Cn2c(C(=O)NS(=O)(=O)c3ccccc3C#N)cc3ccccc32)c(C)c1 [Compound 358] | 
+++ (“+++” means <3 uM) | Cc1cc(C)c(Oc2nc(-c3ccc(Cl)cc3)ccc2C(=O)NS(=O)(=O)c2cccc(N)n2)c(C)c1 [Compound 234, N-[(6-amino-2-pyridyl)sulfonyl]-6-(4-chlorophenyl)-2-(2,4,6-trimethylphenoxy)pyridine-3-carboxamide] | 
+++ (“+++” means <3 uM) | Cc1cc(C(=O)NS(=O)(=O)c2cccc(N)n2)c(N2CC(C)CC2(C)C)nc1-c1ccc(F)cc1 (stereo not shown) [Compound 763, N-[(6-amino-2-pyridyl)sulfonyl]-6-(4-fluorophenyl)-5-methyl-2-(2,2,4-trimethylpyrrolidin-1-yl)pyridine-3-carboxamide] | 
++ (“++” means between 3 uM and 10 uM) | Cc1cc(C)c(Cn2c(C(=O)NS(=O)(=O)c3ccncc3)cc3c(F)cccc32)c(C)c1 [Compound 298, 4-fluoro-N-(4-pyridylsulfonyl)-1-[(2,4,6-trimethylphenyl)methyl]indole-2-carboxamide] | 
++ (“++” means between 3 uM and 10 uM) | Cc1cc(C)c(CN2C[C@H](c3ccccc3)C[C@@H]2C(=O)NS(=O)(=O)c2cccc(N)n2)c(C)c1 [Compound 467, (2R,4S)—N-[(6-amino-2-pyridyl)sulfonyl]-4-phenyl-1-[(2,4,6-trimethylphenyl)methyl]pyrrolidine-2-carboxamide] | 
+++ (“+++” means <3 uM) | Cc1cc(C)c(Oc2nc(-c3cccc4c3ccn4C)ccc2C(=O)NS(=O)(=O)c2cccc(N)n2)c(C)c1 [Compound 386, N-[(6-amino-2-pyridyl)sulfonyl]-6-(1-methylindol-4-yl)-2-(2,4,6-trimethylphenoxy)pyridine-3-carboxamide] | 
